Test results: paper PMC10709440, “High-throughput ligand profile characterization in novel cell lines expressing seven heterologous insect olfactory receptors for the detection of volatile plant biomarkers” (Scientific Reports, 2023)
Like-named read-outs stand apart in the source and are kept apart here.

Key:
[1] = target: T1, Drosophila OR98a (Drosophila melanogaster, UniProt Q9VAZ3); assay: cell-based; set-up: GCaMP6 calcium fluorescence in stable HEK293 OR+ORCO lines; peak dF normalised to 50 uM VUAA1 (=1); conditions: HEK293; relative to 50 uM VUAA1 response; below 0.05 set to 0; read-out: % activation
T1 construct: expressed in transfected cells
T1 sequence (Q9VAZ3 1-397): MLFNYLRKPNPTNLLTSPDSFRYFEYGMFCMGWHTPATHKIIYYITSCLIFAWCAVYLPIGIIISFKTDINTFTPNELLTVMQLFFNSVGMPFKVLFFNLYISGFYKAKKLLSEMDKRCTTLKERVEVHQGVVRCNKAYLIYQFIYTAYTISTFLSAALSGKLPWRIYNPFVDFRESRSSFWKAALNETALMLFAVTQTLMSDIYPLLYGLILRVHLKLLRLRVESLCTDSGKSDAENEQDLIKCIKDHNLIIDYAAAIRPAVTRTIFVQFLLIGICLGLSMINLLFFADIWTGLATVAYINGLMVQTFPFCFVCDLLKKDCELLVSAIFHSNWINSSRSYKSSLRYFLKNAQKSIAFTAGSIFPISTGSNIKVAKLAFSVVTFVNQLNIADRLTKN
T1 sequence (Q9VNB5 1-486 partner): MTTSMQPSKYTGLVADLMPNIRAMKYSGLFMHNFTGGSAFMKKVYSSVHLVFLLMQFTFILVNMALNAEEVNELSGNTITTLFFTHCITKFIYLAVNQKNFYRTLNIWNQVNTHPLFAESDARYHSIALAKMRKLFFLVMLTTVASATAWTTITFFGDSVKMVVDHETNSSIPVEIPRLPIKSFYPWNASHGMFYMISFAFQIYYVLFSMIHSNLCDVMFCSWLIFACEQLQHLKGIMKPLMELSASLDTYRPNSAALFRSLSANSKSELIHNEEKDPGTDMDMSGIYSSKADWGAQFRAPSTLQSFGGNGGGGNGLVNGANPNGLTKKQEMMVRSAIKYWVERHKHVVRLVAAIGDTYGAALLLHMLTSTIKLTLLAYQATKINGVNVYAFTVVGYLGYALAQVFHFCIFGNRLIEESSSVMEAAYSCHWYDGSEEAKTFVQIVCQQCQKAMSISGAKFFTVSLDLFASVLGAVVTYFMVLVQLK
Experimental: Twelve thousand to 18,000 cells were plated into each well of a black wall, transparent bottom 384-well microplate (Greiner) 48 h or 72 h before the measurements and were simultaneously treated with 1 μg/mL doxycycline. […] The plate has 24 columns, thus we could record responses in up to eight different cell lines in each plate. On the day of the experiment, the growth medium was replaced with 20 µL assay buffer/well (140 mM NaCl, 5 mM KCl, 2 mM CaCl2, 1 mM MgCl2, 5 mM HEPES-Na, 20 mM glucose, pH 7.3, 340 mOsm). […] Baseline fluorescence (F0) was recorded for 5 s, after which 7 µL VOC buffer (140 mM NaCl, 5 mM KCl, 2 mM CaCl2, 1 mM MgCl2, 5 mM HEPES-Na, 31 mM glucose, 0.1% DMSO, pH 7.3, 340 mOsm) was injected into each well in one row and the fluorescence response was recorded for an additional 30 s, at a rate of one read/sec. VOC solutions (VOC buffer with 4× concentration of the final measured VOC concentration, 9 µL/well was injected) were measured on the same wells in a second round with the same protocol. Each individual concentration of a specific VOC sample was recorded in three wells for the same cell line on the same microplate. The raw data were exported in xls file format, F0 and FMAX values, and the fluorescence intensity changes (∆F) were calculated in Excel (Microsoft) (Supplementary file Data summary.xlsx) using the following equation: ΔF=FMAX-F0/F0 (see also Fig. 1C). On each plate, we recorded the response of each cell line to 50 µM VUAA1. The average of these ∆F values of each cell line were used to calculate the VUAA1-normalized values for the rest of the plate, by dividing VOC response ∆F values by the average VUAA1 response ∆F value of the corresponding OR cell line. Each VOC-OR combination was measured three times as tec The recorded FMAX, F0, ∆F, VUAA1-normalized ∆F values, as well as the OR name, the name of the tested sample, and the final concentration for each well were copied into supplementary file Data summary.xlsx, that was used to summarize all the plates recorded. Here, the averages of the measurements were calculated for each receptor-VOC-concentration combination. […] Each VOC was measured at 1, 10, and 100 µM final concentration on each receptor. VUAA1-normalized response was calculated as described in methods.

[2] = test system: OR13a; conditions: insect cell line stably expressing OR13a; read-out: EC50 of concentration-dependent Ca2+ signals; cited from earlier work
[3] = test system: OR47a; conditions: similar system to Xenopus oocytes, cited from earlier work
[4] = target: OR85b receptor; conditions: cited from earlier work

SMILES | activity at 1 µM [1] | activity at 10 µM [1] | activity at 100 µM [1] | further results
C=C1CC[C@@]23C[C@@H]1C(C)(C)[C@@H]2CC[C@H]3C [(+)-beta-cedrene] | 8.55% | 5.99% | 6.08% | 
C=CC(O)CCCCC (stereo not drawn) [1-octen-3-ol] |  |  |  | EC50 [2]: 4.33 µM
CCCCCOC(C)=O [pentyl acetate] |  |  |  | EC50 ([3]; ref 34, read-out: calculated EC50): 30.8 ± 1.28 µM; EC50 ([3]; ref 39, read-out: calculated EC50): 10.7 ± 2 µM
C=C(C)C1CCC2(C)OC2C1 (single isomer, unassigned; (+)) [(+)-limonene oxide] | 0% | 0% | 0% | 
CC1=CCC[C@@]2(C)[C@@H]3CC[C@]12CC3(C)C [(−)-α-neoclovene] | 14.8% |  |  | 
C=C(C)[C@H]1CC=C(C)CC1 [(R)-(+)-limonene] | 0% | 0% | 0% | 
CCCCCC(C)=O [2-heptanone] |  |  |  | EC50 ([4]; OR85b in Xenopus oocytes, Nichols and Luetje, read-out: EC50): 70 ± 20 µM; EC50 ([4]; OR85b, Misawa et al., read-out: average EC50): 45.6 µM
C=C1[C@H]2CC[C@@H]3[C@H]2C(C)(C)CCC[C@]13C [(+)-longifolene] | 0% | 12.6% | 0% | 
